# Target: human NaV 1.8 (Homo sapiens, UniProt Q9Y5Y9)
# Assay: E-VIPR assay detecting and measuring NaV inhibition properties
# Assay type: cell-based
# Settings: HEK cells expressing truncated human NaV 1.8; in the presence of human serum (compound numbers followed by *); read-out: IC50 in the E-VIPR Assay, performed in the presence of human serum
# In short: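 HEK cells expressing truncated, fully active human NaV1.8, with KIR2.1 BacMam co-transduction, were loaded with CC2-DMPE/DiSBAC6(3) voltage-sensing dyes for 20 min at room temperature. Compounds were tested in 11-point 3-fold dilutions (300 nM top final), optionally with 25% human serum, under electrical stimulation with FRET read-out.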
# human NaV 1.8, sequence (Q9Y5Y9 126-399 limits assumed): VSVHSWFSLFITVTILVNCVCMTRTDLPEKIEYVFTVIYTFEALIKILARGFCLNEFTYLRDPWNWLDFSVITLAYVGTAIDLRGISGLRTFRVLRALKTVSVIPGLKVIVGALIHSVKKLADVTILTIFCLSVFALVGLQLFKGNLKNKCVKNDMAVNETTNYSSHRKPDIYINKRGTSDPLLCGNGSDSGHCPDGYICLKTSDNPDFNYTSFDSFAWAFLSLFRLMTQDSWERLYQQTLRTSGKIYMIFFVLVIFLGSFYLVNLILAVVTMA
# human NaV 1.8, sequence (Q9Y5Y9 660-890 limits assumed): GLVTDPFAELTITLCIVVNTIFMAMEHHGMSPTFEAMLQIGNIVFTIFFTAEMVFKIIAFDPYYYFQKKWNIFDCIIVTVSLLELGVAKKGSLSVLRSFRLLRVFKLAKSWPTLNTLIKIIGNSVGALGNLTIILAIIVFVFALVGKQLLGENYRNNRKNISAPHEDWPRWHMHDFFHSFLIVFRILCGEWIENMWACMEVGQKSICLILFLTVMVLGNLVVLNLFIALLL
# human NaV 1.8, sequence (Q9Y5Y9 1148-1722 limits assumed): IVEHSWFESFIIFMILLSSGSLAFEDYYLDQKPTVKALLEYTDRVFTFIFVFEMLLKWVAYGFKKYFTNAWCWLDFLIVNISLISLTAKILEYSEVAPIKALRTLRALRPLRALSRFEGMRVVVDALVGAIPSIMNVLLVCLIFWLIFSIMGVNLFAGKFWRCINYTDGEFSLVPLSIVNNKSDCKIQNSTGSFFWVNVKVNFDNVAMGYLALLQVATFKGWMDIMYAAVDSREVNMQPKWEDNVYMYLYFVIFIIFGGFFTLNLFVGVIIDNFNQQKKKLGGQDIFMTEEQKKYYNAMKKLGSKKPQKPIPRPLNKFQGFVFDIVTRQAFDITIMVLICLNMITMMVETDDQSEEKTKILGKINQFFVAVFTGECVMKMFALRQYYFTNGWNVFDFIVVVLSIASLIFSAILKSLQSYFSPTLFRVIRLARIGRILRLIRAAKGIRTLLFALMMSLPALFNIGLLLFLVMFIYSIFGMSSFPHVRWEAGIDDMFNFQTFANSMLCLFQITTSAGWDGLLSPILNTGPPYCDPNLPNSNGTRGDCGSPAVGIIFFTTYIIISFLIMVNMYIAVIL
row,SMILES,IC50
1,CCOc1c(C2CC(C)(C(F)(F)F)OC2C(=O)Nc2ccn3c(OC)nnc3c2)ccc(F)c1F (stereo not drawn) [Compound 708],100 to 1000 nM
2,"COc1cc(F)ccc1C1CC(C)(C(F)(F)F)OC1C(=O)Nc1ccnc(S(C)(=N)=O)c1 (stereo not drawn) [Compound 715, 3-(4-fluoro-2-methoxy-phenyl)-5-methyl-N-[2-(methylsulfonimidoyl)-4-pyridyl]-5-(trifluoromethyl)tetrahydrofuran-2-carboxamide]",100 to 1000 nM

# Same assay, conditions: HEK cells expressing truncated human NaV 1.8; no human serum; read-out: IC50 in the E-VIPR Assay
row,SMILES,IC50
1,"Cc1nn(C(F)F)cc1NC(=O)[C@@H]1O[C@@](C)(C(F)(F)F)[C@@H](C)[C@H]1c1ccc(F)c(F)c1CN(C)C1CCOCC1 [Compound 669, (2R,3S,4S,5R)-3-(3,4-difluoro-2-((methyl(tetrahydro-2H-pyran-4-yl)amino)methyl)phenyl)-N-(1-(difluoromethyl)-3-methyl-1H-pyrazol-4-yl)-4,5-dimethyl-5-(trifluoromethyl)tetrahydrofuran-2-carboxamide]",10 to 100 nM
2,"Cc1nn(C(F)F)cc1NC(=O)[C@@H]1O[C@@](C)(C(F)(F)F)[C@@H](C)[C@H]1c1ccc(F)c(F)c1CN1CC2(COC2)C1 [Compound 670, (2R,3S,4S,5R)-3-(2-((2-oxa-6-azaspiro[3.3]heptan-6-yl)methyl)-3,4-difluorophenyl)-N-(1-(difluoromethyl)-3-methyl-1H-pyrazol-4-yl)-4,5-dimethyl-5-(trifluoromethyl)tetrahydrofuran-2-carboxamide]",10 to 100 nM
3,"CNCc1c([C@H]2[C@H](C(=O)Nc3cn(C(F)F)nc3C)O[C@@](C)(C(F)(F)F)[C@H]2C)ccc(F)c1F [Compound 671, (2R,3S,4S,5R)-3-(3,4-difluoro-2-((methylamino)methyl)phenyl)-N-(1-(difluoromethyl)-3-methyl-1H-pyrazol-4-yl)-4,5-dimethyl-5-(trifluoromethyl)tetrahydrofuran-2-carboxamide]",100 to 1000 nM
4,"Cc1nn(C(F)F)cc1NC(=O)[C@@H]1O[C@@](C)(C(F)(F)F)[C@@H](C)[C@H]1c1ccc(F)c(F)c1CN(C)C [Compound 672, (2R,3S,4S,5R)-N-(1-(difluoromethyl)-3-methyl-1H-pyrazol-4-yl)-3-(2-((dimethylamino)methyl)-3,4-difluorophenyl)-4,5-dimethyl-5-(trifluoromethyl)tetrahydrofuran-2-carboxamide]",10 to 100 nM
5,"Cc1nn(C(F)F)cc1NC(=O)[C@@H]1O[C@@](C)(C(F)(F)F)[C@@H](C)[C@H]1c1ccc(F)c(F)c1CN1CCN(C)CC1 [Compound 674, (2R,3S,4S,5R)-3-(3,4-difluoro-2-((4-methylpiperazin-1-yl)methyl)phenyl)-N-(1-(difluoromethyl)-3-methyl-1H-pyrazol-4-yl)-4,5-dimethyl-5-(trifluoromethyl)tetrahydrofuran-2-carboxamide]",100 to 1000 nM
6,"C=Cc1c([C@H]2[C@H](C(=O)Nc3cn(C(F)F)nc3C)O[C@@](C)(C(F)(F)F)[C@H]2C)ccc(F)c1F [Compound 676, (2R,3S,4S,5R)-3-(3,4-difluoro-2-vinylphenyl)-N-(1-(difluoromethyl)-3-methyl-1H-pyrazol-4-yl)-4,5-dimethyl-5-(trifluoromethyl)tetrahydrofuran-2-carboxamide]",< 10 nM
7,"Cc1nn(C(F)F)cc1NC(=O)[C@@H]1O[C@@](C)(C(F)(F)F)[C@@H](C)[C@H]1c1ccc(F)c(F)c1CCO [Compound 677, (2R,3S,4S,5R)-3-(3,4-difluoro-2-(2-hydroxyethyl)phenyl)-N-(1-(difluoromethyl)-3-methyl-1H-pyrazol-4-yl)-4,5-dimethyl-5-(trifluoromethyl)tetrahydrofuran-2-carboxamide]",10 to 100 nM
8,"Cc1nn(C(F)F)cc1NC(=O)[C@@H]1O[C@@](C)(C(F)(F)F)[C@@H](C)[C@H]1c1ccc(F)c(F)c1CCN(C)C [Compound 678, (2R,3S,4S,5R)—N-(1-(difluoromethyl)-3-methyl-1H-pyrazol-4-yl)-3-(2-(2-(dimethylamino)ethyl)-3,4-difluorophenyl)-4,5-dimethyl-5-(trifluoromethyl)tetrahydrofuran-2-carboxamide]",100 to 1000 nM
9,"Cc1nn(C(F)F)cc1NC(=O)[C@@H]1O[C@@](C)(C(F)(F)F)[C@@H](C)[C@H]1c1ccc(F)c(F)c1CCN1CC2(COC2)C1 [Compound 679, (2R,3S,4S,5R)-N-[1-(difluoromethyl)-3-methyl-pyrazol-4-yl]-3-[3,4-difluoro-2-[2-(2-oxa-6-azaspiro[3.3]heptan-6-yl)ethyl]phenyl]-4,5-dimethyl-5-(trifluoromethyl)tetrahydrofuran-2-carboxamide]",≥ 1000 nM
10,"Cc1nn(C(F)F)cc1NC(=O)[C@@H]1O[C@@](C)(C(F)(F)F)[C@@H](C)[C@H]1c1ccc(F)c(F)c1CCc1cn[nH]c1 [Compound 681, (2R,3S,4S,5R)-3-(2-(2-(1H-pyrazol-4-yl)ethyl)-3,4-difluorophenyl)-N-(1-(difluoromethyl)-3-methyl-1H-pyrazol-4-yl)-4,5-dimethyl-5-(trifluoromethyl)tetrahydrofuran-2-carboxamide]",10 to 100 nM

# Next, values leading:
row,IC50,SMILES
1,< 10 nM,"COc1c([C@H]2[C@H](C(=O)Nc3ccc(C(N)=O)nc3)O[C@@](C)(C(F)(F)F)[C@H]2C)ccc(OC(F)F)c1F [Compound 682, 5-((2R,3S,4S,5R)-3-(4-(difluoromethoxy)-3-fluoro-2-methoxyphenyl)-4,5-dimethyl-5-(trifluoromethyl)tetrahydrofuran-2-carboxamido)picolinamide]"
2,100 to 1000 nM,"COc1c([C@@H]2[C@H](C)[C@H](C(C)C)O[C@H]2C(=O)Nc2cccnc2)ccc(F)c1F [Compound 720, (2R,3S,4S,5S)-3-(3,4-difluoro-2-methoxyphenyl)-5-isopropyl-4-methyl-N-(pyridin-3-yl)tetrahydrofuran-2-carboxamide]"
3,< 10 nM,"COc1c([C@H]2[C@H](C(=O)Nc3ccc(C(N)=O)nc3)O[C@@](C)(C(F)(F)F)[C@H]2C)cc(O)c(F)c1F [Compound 733, 5-((2R,3S,4S,5R)-3-(3,4-difluoro-5-hydroxy-2-methoxyphenyl)-4,5-dimethyl-5-(trifluoromethyl)tetrahydrofuran-2-carboxamido)picolinamide]"

# Source: patent publication US20240368135A1 (VERTEX PHARMACEUTICALS INCORPORATED, priority 2021, published 2024)
